From patent publication US9193673B2, “Derivatives of mesalazine, process of their preparation and their use in the treatment of intestinal inflammatory diseases” (SOFAR SPA, priority 2010, dated 2015)

Assays:
[1] = Stability in simulated gastric and simulated intestinal fluids; format: physicochemical
Experimental: Such study is conducted with the aim of evaluating the stability of the compound (IV) at […] in absence of enzymes of the intestinal bacterial flora.
(§1) The stability of the compound (IV) is compared to that of known reference standards.

[2] = Stability in murine intestinal homogenate; format: in vitro ADME, rat; conditions: rat intestinal homogenate, reference standard (concentration not given)
Experimental: Such study is conducted with the aim of evaluating the stability of the compound (IV) in intestinal homogenate.
as §1

[3] = Hydrolysis in rat intestine preserved in different conditions; format: in vitro ADME
Experimental: Such study is conducted with the aim of surveying the stability of the compound (IV) in rat intestine homogenate preserved in different conditions: frozen at […] and at −80° C.
as §1

[4] = Permeability on the Caco2 cellular line; format: in vitro ADME; conditions: human, Caco-2; Apical (pH 6.5) → Basolateral (pH 7.4), Caco2; read-out: Papp A→B (nm/sec) Mean ± SD
Experimental: (§2) Such study is conducted with the aim of evaluating the capacity of the molecule to permeate the intestinal epithelium and be absorbed thereby evaluating the Papp (apparent permeability coefficient). The Papp of the compound (IV) is compared to that of the known reference standards.

Caco2 cellular line = experiment: Permeability on the Caco2 cellular line; format: in vitro ADME; conditions: A→B, Caco2
Experimental: as §2

## O=C(O)CCCc1ccc(N(CCCl)CCCl)cc1 [Chlorambucil, reference compound]
[1]; SGF, 30 min incubation
  % Residue: 92.8 ± 2.1%
[1]; SGF, 60 min incubation
  % Residue: 89.8 ± 1.5%
[1]; SIF, 30 min incubation
  % Residue: 42.1 ± 0.5%
[1]; SIF, 60 min incubation
  % Residue: 13.9 ± 0.3%
[2]; 30 min
  Residue percentage: 49.5 ± 7.8%
[2]; 1 hr
  Residue percentage: 16.9 ± 2.2%
[2]; 2 hrs
  Residue percentage: 1.5 ± 0.1%
[2]; 4 hrs
  Residue percentage: 0.20 ± 0.08%
[3]; fresh homogenate, 15 min
  Stability in rat intestine (residue %): 75.2 ± 3.8%
[3]; fresh homogenate, 30 min
  Stability in rat intestine (residue %): 58.7 ± 2.3%
[3]; fresh homogenate, 60 min
  Stability in rat intestine (residue %): 28.0 ± 1.5%
[3]; homogenate 4° C., 15 min
  Stability in rat intestine (residue %): 76.5 ± 5.0%
[3]; homogenate 4° C., 30 min
  Stability in rat intestine (residue %): 53.0 ± 13.9%
[3]; homogenate 4° C., 60 min
  Stability in rat intestine (residue %): 25.9 ± 5.3%
[3]; intestine −80° C., 15 min
  Stability in rat intestine (residue %): 73.0 ± 1.2%
[3]; intestine −80° C., 30 min
  Stability in rat intestine (residue %): 25.0 ± 6.1%
[3]; intestine −80° C., 60 min
  Stability in rat intestine (residue %): 6.9 ± 1.4%

## CC[C@H]1OC(=O)[C@H](C)[C@@H](O[C@H]2C[C@@](C)(OC)[C@@H](O)[C@H](C)O2)[C@H](C)[C@@H](O[C@@H]2O[C@H](C)C[C@H](N(C)C)[C@H]2O)[C@](C)(O)C[C@@H](C)C(=O)[C@H](C)[C@@H](O)[C@]1(C)O [Erythromycin, reference compound]
[1]; SGF, 30 min incubation
  % Residue: 0.2 ± 0.1%
[1]; SGF, 60 min incubation
  % Residue: 0.1 ± 0.1%
[1]; SIF, 30 min incubation
  % Residue: 98.1 ± 1.4%
[1]; SIF, 60 min incubation
  % Residue: 100.9 ± 0.4%
[2]; 30 min
  Residue percentage: 83.5 ± 3.6%
[2]; 1 hr
  Residue percentage: 84.7 ± 3.6%
[2]; 2 hrs
  Residue percentage: 95.0 ± 11.0%
[2]; 4 hrs
  Residue percentage: 97.5 ± 2.8%

## CC[C@]1(O)C[C@@H]2CN(CCc3c([nH]c4ccccc34)[C@@](C(=O)OC)(c3cc4c(cc3OC)N(C)[C@H]3[C@@](O)(C(=O)OC)[C@H](OC(C)=O)[C@]5(CC)C=CCN6CC[C@]43[C@@H]65)C2)C1 [Vinblastine, reference compound]
[4]
  Papp A→B: 0.41 ± 0.21 ×10⁻⁶ cm/s
Caco2 cellular line
  A→B Mean mass balance %: 89%
